PubChem BioAssay AID1963869 (Molecular Pharmacology Branch, DTP, NCI, 2024)

Tested on: KRAS patient-derived spheroids with HUVEC/MSC, viability
Test: Anticancer human tumor 323965-272-R-J2-PDC patient-derived pancreatic carcinoma cell line growth inhibition [KRAS2]
Details: for IC50: curve of first compound; for viability, T/C: stronger effect = lower value
Summary of the method: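 Combination screen of spheroid viability in tumor-cell co-cultures with endothelial (HUVEC) and mesenchymal stem cell stroma. Each agent was tested in half-log dilutions, topping at clinical Cmax or at 10 microM without a known Cmax.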
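Also: spheroids exposed to agents for 7 days.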
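For viability, T/C in this document: 100% = DMSO vehicle control viability.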

In the case of CC1OCC2(CCN(c3cnc(Sc4ccnc(N)c4Cl)c(N)n3)CC2)C1N (stereo not given) + COc1cc2nc(C)nc(NC(C)c3cc(N)cc(C(F)(F)F)c3)c2cc1OC1CCOC1, the IC50 (second compound 0.1 µM) is reported as 118 nM, the IC50 (second compound 0.316 µM) is reported as 54.9 nM and the IC50 (second compound 1 µM) is reported as under 31.6 nM. It also gave an IC50 (second compound 3.16 µM) of under 31.6 nM, an IC50 (second compound 10 µM) of under 31.6 nM and a viability, T/C (second compound 0.1 µM, first compound 0.0316 µM) of 66.7%. The viability, T/C (second compound 0.1 µM, first compound 0.1 µM) was 49.4%, the viability, T/C (second compound 0.1 µM, first compound 0.316 µM) was 41.4% and the viability, T/C (second compound 0.1 µM, first compound 1 µM) was 33%. It also gave a viability, T/C (second compound 0.1 µM, first compound 3.16 µM) of 24.1%, a viability, T/C (second compound 0.1 µM, first compound 10 µM) of 21.1% and a viability, T/C (second compound 0.316 µM, first compound 0.0316 µM) of 52.5%. The viability, T/C (second compound 0.316 µM, first compound 0.1 µM) was 47.9%, the viability, T/C (second compound 0.316 µM, first compound 0.316 µM) was 40.2% and the viability, T/C (second compound 0.316 µM, first compound 1 µM) was 27.5%. For the same compound, the viability, T/C (second compound 0.316 µM, first compound 3.16 µM) was 26.1%, the viability, T/C (second compound 0.316 µM, first compound 10 µM) was 19.1% and the viability, T/C (second compound 1 µM, first compound 0.0316 µM) was 43.5%. It also gave a viability, T/C (second compound 1 µM, first compound 0.1 µM) of 34.6%, a viability, T/C (second compound 1 µM, first compound 0.316 µM) of 31.1% and a viability, T/C (second compound 1 µM, first compound 1 µM) of 24.7%. The viability, T/C (second compound 1 µM, first compound 3.16 µM) was 19.4%, the viability, T/C (second compound 1 µM, first compound 10 µM) was 20.6% and the viability, T/C (second compound 3.16 µM, first compound 0.0316 µM) was 46.6%. The viability, T/C (second compound 3.16 µM, first compound 0.1 µM) was 33.7%, the viability, T/C (second compound 3.16 µM, first compound 0.316 µM) was 29.6% and the viability, T/C (second compound 3.16 µM, first compound 1 µM) was 17.7%. The viability, T/C (second compound 3.16 µM, first compound 3.16 µM) was 13.8%, the viability, T/C (second compound 3.16 µM, first compound 10 µM) was 16.9% and the viability, T/C (second compound 10 µM, first compound 0.0316 µM) was 49.2%. For the same compound, the viability, T/C (second compound 10 µM, first compound 0.1 µM) was 35.6%, the viability, T/C (second compound 10 µM, first compound 0.316 µM) was 17.5% and the viability, T/C (second compound 10 µM, first compound 1 µM) was 12.9%. It also gave a viability, T/C (second compound 10 µM, first compound 3.16 µM) of 11.5% and a viability, T/C (second compound 10 µM, first compound 10 µM) of 11.4%.
